Values of other authors in patent US8586094B2, “Coated tablets” (Jagotec AG, priority 2000, dated 2013).
Read-outs that look alike come from different tables or passages of the source.

## CC(C)(Oc1ccc(C(=O)c2ccc(Cl)cc2)cc1)C(=O)O [fenofibric acid]
  elimination / plasma half-life: approximately twenty
Listed as Fenofibric acid
  elimination / plasma half-life: about 20 hours
